Assay [1] concerns the target T1, 11β HSD1 (11β-hydroxysteroid dehydrogenase type 1) (Homo sapiens, UniProt P28845).
T1 construct: gene HSD11B1; purified recombinant human 11β HSD1
Description: in vitro enzyme inhibition assay with purified recombinant enzyme. The assay is classed as biochemical.

The target in assay [2] is T2, 11β HSD1 (11β-hydroxysteroid dehydrogenase type 1) (Mus musculus, UniProt P50172).
T2 construct: gene Hsd11b1; purified recombinant mouse 11β HSD1
Described as above. The assay is classed as biochemical.

T1 sequence (P28845 whole entry): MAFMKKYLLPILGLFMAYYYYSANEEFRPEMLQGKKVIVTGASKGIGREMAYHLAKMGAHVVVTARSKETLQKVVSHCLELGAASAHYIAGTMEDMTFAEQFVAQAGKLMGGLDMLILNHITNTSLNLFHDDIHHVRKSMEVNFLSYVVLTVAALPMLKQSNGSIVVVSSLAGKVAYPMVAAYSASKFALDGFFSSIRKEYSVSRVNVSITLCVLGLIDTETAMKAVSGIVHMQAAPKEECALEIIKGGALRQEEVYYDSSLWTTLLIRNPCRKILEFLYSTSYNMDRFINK
T2 sequence (P50172 whole entry): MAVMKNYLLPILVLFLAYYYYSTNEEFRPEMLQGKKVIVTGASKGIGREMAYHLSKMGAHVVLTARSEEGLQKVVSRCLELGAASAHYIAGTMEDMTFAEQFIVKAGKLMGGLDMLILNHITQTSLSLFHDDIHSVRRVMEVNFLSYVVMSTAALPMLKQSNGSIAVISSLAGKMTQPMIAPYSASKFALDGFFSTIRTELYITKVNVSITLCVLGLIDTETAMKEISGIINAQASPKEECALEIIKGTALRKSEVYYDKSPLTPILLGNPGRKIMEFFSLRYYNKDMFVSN

`C[C@H](NC1=NC(=O)[C@@](C)(C(F)(F)F)S1)c1ccccc1F` [BVT116429, (S)-2-((S)-1-(2-fluorophenyl)ethylamino)-5-methyl-5-(trifluoromethyl)thiazol-4(5H)-one]: the values for the Ki in assay [1] and in assay [2] were 0.029 µM and 0.036 µM, respectively.

Source of the values: paper PMC2270815, “Inhibition of 11βHSD1 with the S-phenylethylaminothiazolone BVT116429 increases adiponectin concentrations and improves glucose homeostasis in diabetic KKA^y mice” (BMC Pharmacology, 2008).
